Results reported in US20240018146A1, “COMPOSITIONS AND METHODS OF USING THE SAME FOR TREATMENT OF NEURODEGENERATIVE AND MITOCHONDRIAL DISEASE” (MITOKININ, INC., priority 2020, published 2024).
Read-outs that look alike come from different tables or passages of the source.

Assays:
Format in all cases: cell-based
[1] = system: HeLa MKYP cells; assay: Cell death measured by DAPI staining, with 1 μM FCCP/oligomycin or no toxin (no FO); details: for Max cell death at 25 μM compound, 1 uM FO (%) / Cell death at 25 μM (no FO) (%): 25 μM compound
How it was run: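 HeLa MKYP cells were treated with compounds alongside 1 μM FCCP/oligomycin or no toxin for 6 or 6.5 h. Cell death was scored by DAPI staining, with H2O2 treatment as the death control.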

[2] = Mitotoxicity / Mitotox safety margin (therapeutic window)
[3] = system: HeLa MKYP cells; assay: Human mitophagy assay (HeLa mKeima assay, FACS)
How it was run: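 HeLa cells carrying the pH-sensitive mtKeima tag incubated 16 h with compound at several concentrations, then 1 uM FCCP/oligomycin for 6 h. FACS detects mitochondria in lysosomes through the Keima emission shift, quantified as percentage of cells in mitophagy.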

[4] = Homo sapiens, HeLa, read-out: Mitophagy induction EC50
[5] = read-out: Mitophagy induction EC50
[6] = Homo sapiens, HeLa, HeLa mKeima assay, read-out: Mitophagy EC50 (HeLa mKeima assay)

SMILES	Highest safe dose (cytotoxicity; no FO; safe means DAPI+ <20%) [1]	Max % death with 1 μM FO [1]	Mito-Safety Index (highest safe dose/EC50) [2]	Highest safe dose (μM) (mitotox or cytotox) [2]	EC50 [3, 4]	EC50 [3, 5]	Max cell death at 25 μM compound, 1 uM FO (%) [1]	Cell death at 25 μM (no FO) (%) [1]	Mitotox safety margin (Therapeutic window) [2]	EC50 [3, 6]
FC(F)(F)c1cc2c(N[C@@H]3c4ccccc4OC[C@H]3C3CCOCC3)ncnc2[nH]1 (single isomer, unassigned) [EP-0040700]	25.0 µM	14.1%	41.37	4.7 µM	0.11 µM					
Fc1ccc2c(c1)CC[C@@H](N1C[C@H]3COC[C@H]3C1)[C@@H]2Nc1ncnc2[nH]c(C(F)(F)F)cc12 (single isomer, unassigned) [EP-0040721]	8.3 µM	36.3%	46.94	8.3 µM	0.18 µM					
Fc1ccc2c(c1)OC[C@H](N1C[C@H]3COC[C@@H]3C1)[C@H]2Nc1ncnc2[nH]c(C(F)(F)F)cc12 (single isomer, unassigned) [EP-0040748]	25.0 µM	25.3%	46.81	9.9 µM		0.21 µM				
C[C@@H]1CN([C@H]2COc3ccccc3[C@@H]2Nc2ncnc3[nH]c(C(F)(F)F)cc23)C[C@H](C)O1 (single isomer, unassigned) [EP-0040749]	25.0 µM	34.3%	48.24	7.1 µM	0.15 µM					
C[C@@H]1CN([C@H]2COc3ccccc3[C@@H]2Nc2ncnc3[nH]c(C4CC4)cc23)C[C@H](C)O1 (single isomer, unassigned) [EP-0040750]	25.0 µM	27.7%	43.07	2.3 µM	0.05 µM					
C[C@@H]1CN([C@H]2COc3cc(F)ccc3[C@@H]2Nc2ncnc3[nH]c(C(F)(F)F)cc23)C[C@H](C)O1 (single isomer, unassigned) [EP-0040773]	25.0 µM	27.3%	77.04	9.9 µM	0.13 µM					
C[C@@H]1CN([C@H]2COc3cc(F)ccc3[C@@H]2Nc2ncnc3[nH]c(C4CC4)cc23)C[C@H](C)O1 (single isomer, unassigned) [EP-0040842]	25.0 µM	22.5%	82.00	2.0 µM	0.02 µM					
FC(F)(F)c1cc2c(N[C@@H]3c4ccccc4OC[C@@H]3C3CCCOC3)ncnc2[nH]1 (single isomer, unassigned) [EP-0041005]	25.0 µM	24.8%	17.30	25.0 µM	1.45 µM					
COC[C@@H]1CCN([C@H]2COc3ccccc3[C@@H]2Nc2ncnc3[nH]c(C(F)(F)F)cc23)C1 (single isomer, unassigned) [EP-0041071]	25.0 µM	12.6%	47.29	3.3 µM		0.07 µM				
COC[C@H]1CCN([C@H]2COc3ccccc3[C@@H]2Nc2ncnc3[nH]c(C(F)(F)F)cc23)C1 (single isomer, unassigned) [EP-0041175]	25.0 µM	8.8%	30.68	4.5 µM		0.15 µM				
[2H]C([2H])([2H])OC1CN([C@H]2COc3ccccc3[C@@H]2Nc2ncnc3[nH]c(C(F)(F)F)cc23)C1 (single isomer, unassigned) [EP-0041326]	25.0 µM	7.5%	56.49	19.8 µM		0.35 µM				
COC[C@@H]1CCN(C2COc3ccccc3C2Nc2ncnc3[nH]c(C4CC4)cc23)C1 (single isomer, unassigned) [EP-0041514]	25.0 µM	8.1%	38.63	1.4 µM		0.03 µM				
FC(F)OC1CN([C@H]2COc3ccccc3[C@@H]2Nc2ncnc3[nH]c(C(F)(F)F)cc23)C1 (single isomer, unassigned) [EP-0041541]	25.0 µM	19.1%	28.61	8.3 µM	0.29 µM					
c1ccc2c(c1)CC[C@H](N1C[C@H]3COC[C@H]3C1)[C@H]2Nc1ncnc2[nH]c(C3CC3)cc12 [EP-0039713]	25.0 µM	26.3%	9.46	0.9 µM	0.1 µM		19.2%	12.9%	+ (+ = <10)	0.1 µM
CN(c1ncnc2[nH]c(C(F)(F)F)cc12)C1c2ccccc2CCC1N1C[C@H]2COC[C@H]2C1 (stereo partly shown) [EP-0039742]	25.0 µM	20.4%	7.45	25.0 µM	3.36 µM		13.8%	2.45%		3.33 µM
CN(c1ncnc2[nH]c(C3CC3)cc12)C1c2ccccc2CCC1N1C[C@H]2COC[C@H]2C1 (stereo partly shown) [EP-0039743]	25.0 µM	28.2%	5.99	25.0 µM	4.17 µM		33.7%	11.6%		3.88 µM
c1ccc2c(c1)OC[C@H](N1CCOCC1)[C@H]2Nc1ncnc2[nH]c(C3CC3)cc12 [EP-0040080]	25.0 µM	13.9%	51.66	25.0 µM	0.48 µM		16%	4.73%	++ (++ = 10 < x < 20)	0.59 µM
N#Cc1ccc2c(c1)CC[C@H](N1C[C@H]3COC[C@H]3C1)[C@H]2Nc1ncnc2[nH]c(C(F)(F)F)cc12 [EP-0040120]	8.3 µM	93.5%		8.3 µM	2.3 µM					
FC(F)(F)c1cc2c(N[C@H]3c4ccccc4OC[C@@H]3N3C[C@H]4COC[C@H]4C3)ncnc2[nH]1 [EP-0040138]	25.0 µM	9.4%	32.50	25.0 µM	0.77 µM					
Fc1ccc2c(c1)CC[C@H](N1C[C@H]3COC[C@@H]3C1)[C@H]2Nc1ncnc2[nH]c(C3CC3)cc12 [EP-0040395]	25.0 µM	8.1%	56.09	11.7 µM	0.21 µM					
FC(F)(F)c1cc2c(N[C@H]3c4ccccc4OC[C@@H]3C3CCOCC3)ncnc2[nH]1 [EP-0040583]	25.0 µM	17.8%	104.01	25.0 µM	0.24 µM					
